Patent US20140057915A1, “KINASE INHIBITORS” (TOPIVERT PHARMA LIMITED, priority 2012, published 2014)

How the values were obtained:
GSK3α = GSK3α (Homo sapiens, UniProt P49840); experiment: GSK 3α enzyme inhibition (FRET), Method 1; assay type: biochemical; conditions: Table 4a1
Method: (§1) The enzyme inhibitory activities of compounds disclosed herein are determined by FRET using synthetic peptides labelled with both donor and acceptor fluorophores (Z-LYTE, Invitrogen Ltd., Paisley, UK).
The following two assay variants are used for determination of GSK 3a inhibition.
The inhibitory activities of compounds of the invention against the GSK 3a enzyme isoform (Invitrogen), are evaluated by determining the level of activation/phosphorylation of the target peptide. The GSK3-α protein (500 ng/mL, 2.5 μL) is mixed with the test compound (2.5 μL at either 4 μg/mL, 0.4 μg/mL, 0.04 μg/mL, or 0.004 μg/mL) for 2 hr at RT. The FRET peptide (8 μM, 2.5 μL), which is a phosphorylation target for GSK3α, and ATP (40 μM, 2.5 μL) are then added to the enzyme/compound mixture and the resulting mixture incubated for 1 hr. Development reagent (protease, 5 μL) is added for 1 hr prior to detection in a fluorescence microplate reader (Varioskan® Flash, ThermoFisher Scientific).
(§2) In all cases, the site-specific protease cleaves non-phosphorylated peptide only and eliminates the FRET signal. Phosphorylation levels of each reaction are calculated using the ratio of coumarin emission (donor) over fluorescein emission (acceptor), for which high ratios indicate high phosphorylation and low ratios indicate low phosphorylation levels.

cSrc = cSrc (Homo sapiens, UniProt P12931); experiment: c-Src enzyme inhibition (FRET); assay type: biochemical; conditions: Table 4a1
Method: as §1
(§3) The relevant enzyme (3000 ng/mL or 2000 ng/mL respectively, 2.5 μL) is incubated with the test compound (either 4 μg/mL, 0.4 μg/mL, 0.04 μg/mL, or 0.004 μg/mL, 2.5 μL each) for 2 hr at RT. The FRET peptides (8 μM, 2.5 μL), and appropriate ATP solutions (2.5 μL, 800 μM for c-Src, and 60 μM ATP for Syk) are then added to the enzymes/compound mixtures and incubated for 1 hr. Development reagent (protease, 5 μL) is added for 1 hr prior to detection in a fluorescence microplate reader (Varioskan® Flash, ThermoFisher Scientific).
as §2

[1] = tested on: TNFα release, d-U937 cells; experiment: LPS-induced TNFα release in d-U937 cells; assay type: cell-based; conditions: Homo sapiens, dU937; relative to 10 μg/mL BIRB796; Table 4c1; read-out: LPS Induced Release of Cytokine in d-U937 Cells, TNFα REC50
Method: (§4) (a) LPS-Induced TNFα/IL-8 Release in d-U937Cells
U937 cells, a human monocytic cell line, are differentiated into macrophage-type cells by incubation with PMA (100 ng/mL) for 48 to 72 hr. Cells are pre-incubated with final concentrations of test compound for 2 hr and are then stimulated with LPS (0.1 μg/mL; from E. Coli: 0111:B4, Sigma) for 4 hr. The supernatant is collected for determination of TNFα and IL-8 concentrations by sandwich ELISA (Duo-set, R&D systems). […] The relative 50% effective concentration (REC50) is determined from the resultant concentration-response curve. The inhibition of IL-8 production is calculated at each concentration of test compound by comparison with vehicle control.

[2] = tested on: IL-8 release, d-U937 cells; experiment: LPS-induced IL-8 release in d-U937 cells; assay type: cell-based; conditions: Homo sapiens, dU937; Table 4c1; read-out: LPS Induced Release of Cytokine in d-U937 Cells, IL-8 IC50
Method: as §4
U937 cells, a human monocytic cell line, are differentiated into macrophage-type cells by incubation with PMA (100 ng/mL) for 48 to 72 hr. Cells are pre-incubated with final concentrations of test compound for 2 hr and are then stimulated with LPS (0.1 μg/mL; from E. Coli: 0111:B4, Sigma) for 4 hr. […] The relative 50% effective concentration (REC50) is determined from the resultant concentration-response curve.

Syk = Syk (Homo sapiens, UniProt P43405); experiment: Syk enzyme inhibition (FRET); assay type: biochemical; conditions: Table 4a1
Method: as §1, §3, §2

d-U937 cells = experiment: Cell viability: MTT assay; assay type: cell-based, human; conditions: 1 μg/mL
Method: (l) The Effect of Test Compounds on Cell Viability: MTT Assay
Differentiated U937 cells are pre-incubated with each test compound (final concentration 1 μg/mL or 10 μg/mL in 200 μL media indicated below) under two protocols: the first for 4 hr in 5% FCS RPMI1640 media and the second in 10% FCS RPMI1640 media for 24 h. The supernatant is replaced with new media (200 μL) and MTT stock solution (10 μL, 5 mg/mL) is added to each well. After incubation for 1 hr the media are removed, DMSO (200 μL) is added to each well and the plates are shaken lightly for 1 hr prior to reading the absorbance at 550 nm. The percentage loss of cell viability is calculated for each well relative to vehicle (0.5% DMSO) treatment. Consequently an apparent increase in cell viability for drug treatment relative to vehicle is tabulated as a negative percentage.

[3] = tested on: ICAM-1 expression, BEAS2B cells; experiment: Poly I:C-induced ICAM-1 expression in BEAS2B cells; assay type: cell-based; conditions: Homo sapiens, BEAS-2B; read-out: Poly IC induced ICAM1 in BEAS2B, IC50
Method: (f) Poly I:C-Induced ICAM-1 Expression in BEAS2B Cells
Poly I:C is used in these studies as a simple, RNA virus mimic. Poly I:C-Oligofectamine mixture (1 μg/mL Poly I:C, ±2% Oligofectamine, 25 μL; Invivogen Ltd., San Diego, Calif., and Invitrogen, Carlsbad, Calif., respectively) is transfected into BEAS2B cells (human bronchial epithelial cells, ATCC). Cells are pre-incubated with final concentrations of test compounds for 2 hr and the level of ICAM1 expression on the cell surface is determined by cell-based ELISA. At a time point 18 hr after poly I:C transfection, cells are fixed with 4% formaldehyde in PBS (100 μL) and then endogenous peroxidase is quenched by the addition of washing buffer (100 μL, 0.05% Tween in PBS: PBS-Tween) containing 0.1% sodium azide and 1% hydrogen peroxide. Cells are washed with wash-buffer (3×200 μL). and after blocking the wells with 5% milk in PBS-Tween (100 μL) for 1 hr, the cells are incubated with anti-human ICAM-1 antibody (50 μL; Cell Signalling Technology, Danvers, Mass.) in 1% BSA PBS overnight at 4° C.
The cells are washed with PBS-Tween (3×200 μL) and incubated with the secondary antibody (100 μL; HRP-conjugated anti-rabbit IgG, Dako Ltd., Glostrup, Denmark). […] The ICAM-1 signal is detected by reading the absorbance at 450 nm against a reference wavelength of 655 nm using a spectrophotometer. The cells are then washed with PBS-Tween (3×200 μL) and total cell numbers in each well are determined by reading absorbance at 595 nm after Crystal Violet staining (50 μL of a 2% solution in PBS) and elution by 1% SDS solution (100 μL) in distilled water. The measured OD 450-655 readings are corrected for cell number by dividing with the OD595 reading in each well. The inhibition of ICAM-1 expression is calculated at each concentration of test compound by comparison with vehicle control.

Sequence of GSK3α (P49840 whole entry): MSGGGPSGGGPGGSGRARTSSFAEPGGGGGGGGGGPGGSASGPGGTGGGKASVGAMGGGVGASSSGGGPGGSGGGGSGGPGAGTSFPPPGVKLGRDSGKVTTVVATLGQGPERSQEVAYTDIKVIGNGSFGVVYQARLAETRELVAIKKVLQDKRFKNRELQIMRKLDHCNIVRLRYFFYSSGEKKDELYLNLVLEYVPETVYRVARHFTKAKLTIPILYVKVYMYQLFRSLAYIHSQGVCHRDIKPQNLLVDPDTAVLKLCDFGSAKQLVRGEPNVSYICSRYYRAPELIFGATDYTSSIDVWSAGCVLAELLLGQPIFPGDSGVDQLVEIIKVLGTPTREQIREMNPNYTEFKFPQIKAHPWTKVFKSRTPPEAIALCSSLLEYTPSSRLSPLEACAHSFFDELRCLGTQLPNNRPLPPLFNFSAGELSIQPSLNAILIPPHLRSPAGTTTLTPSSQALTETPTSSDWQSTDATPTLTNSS
Sequence of cSrc (P12931 whole entry): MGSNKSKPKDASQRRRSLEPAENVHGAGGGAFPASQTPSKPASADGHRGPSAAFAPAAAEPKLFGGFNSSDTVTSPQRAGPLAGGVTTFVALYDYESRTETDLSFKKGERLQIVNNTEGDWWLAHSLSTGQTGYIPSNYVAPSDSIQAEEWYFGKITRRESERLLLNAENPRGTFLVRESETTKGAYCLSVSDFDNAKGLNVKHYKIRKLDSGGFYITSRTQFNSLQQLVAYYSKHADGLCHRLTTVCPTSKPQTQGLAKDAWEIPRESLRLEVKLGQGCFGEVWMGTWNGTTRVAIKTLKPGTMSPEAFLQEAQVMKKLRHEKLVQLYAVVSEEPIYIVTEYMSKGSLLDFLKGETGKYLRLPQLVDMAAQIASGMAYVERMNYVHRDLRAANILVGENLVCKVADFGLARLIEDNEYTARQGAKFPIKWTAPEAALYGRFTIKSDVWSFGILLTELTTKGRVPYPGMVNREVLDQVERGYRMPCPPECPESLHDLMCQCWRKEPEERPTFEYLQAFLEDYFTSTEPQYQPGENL

| IC50 (GSK3α) | IC50 (cSrc) | EC50 [1] | IC50 [2] | IC50 (Syk) | Compound | Cell viability at time point in d-U937 cells, 4 h (d-U937 cells) | Cell viability at time point in d-U937 cells, 24 h (d-U937 cells) | IC50 [3] |
| --- | --- | --- | --- | --- | --- | --- | --- | --- |
| > 13000 nM | 27 nM | 3.7 nM | 24.1 nM | 149 nM | COc1cc(C(=O)NCCN2CCOCC2)ccc1Nc1nccc(Oc2ccc(NC(=O)Nc3cc(C(C)(C)C)nn3-c3ccc(C)cc3)c3ccccc23)n1 [Example 37, 4-((4-((4-(3-(3-(tert-butyl)-1-(p-tolyl)-1H-pyrazol-5-yl)ureido)naphthalen-1-yl)oxy)pyrimidin-2-yl)amino)-3-methoxy-N-(2-morpholinoethyl)benzamide] | −ve (−ve and +ve indicate that the value is below and above respectively, the no significant effect threshold, defined as 30% inhibition at 1 μg/mL at the time point indicated) | −ve (−ve and +ve indicate that the value is below and above respectively, the no significant effect threshold, defined as 30% inhibition at 1 μg/mL at the time point indicated) | 19.6 nM |
| > 14000 nM | < 1 nM | 2.2 nM | 32.4 nM | 54 nM | COc1ccc(C(=O)NCCN(C)C)cc1Nc1nccc(Oc2ccc(NC(=O)Nc3cc(C(C)C)nn3-c3ccc(C)cc3)c3ccccc23)n1 [Example 28, N-(2-(dimethylamino)ethyl)-3-((4-((4-(3-(3-isopropyl-1-(p-tolyl)-1H-pyrazol-5-yl)ureido)naphthalen-1-yl)oxy)pyrimidin-2-yl)amino)-4-methoxybenzamide] | −ve (−ve and +ve indicate that the value is below and above respectively, the no significant effect threshold, defined as 30% inhibition at 1 μg/mL at the time point indicated) | −ve (−ve and +ve indicate that the value is below and above respectively, the no significant effect threshold, defined as 30% inhibition at 1 μg/mL at the time point indicated) | 140 nM |
| > 14600 nM | < 2 nM | 3.1 nM | 17.1 nM | 152 nM | COc1ccc(C(=O)NCCO)cc1Nc1nccc(Oc2ccc(NC(=O)Nc3cc(C(C)C)nn3-c3ccc(C)cc3)c3ccccc23)n1 [Example 32, N-(2-hydroxyethyl)-3-((4-((4-(3-(3-isopropyl-1-(p-tolyl)-1H-pyrazol-5-yl)ureido)naphthalen-1-yl)oxy)pyrimidin-2-yl)amino)-4-methoxybenzamide] | −ve (−ve and +ve indicate that the value is below and above respectively, the no significant effect threshold, defined as 30% inhibition at 1 μg/mL at the time point indicated) | −ve (−ve and +ve indicate that the value is below and above respectively, the no significant effect threshold, defined as 30% inhibition at 1 μg/mL at the time point indicated) | 86.7 nM |
| 207 nM | 1 nM | 1.4 nM | 0.3 nM | 14 nM | Cc1csc(-n2nc(C(C)(C)C)cc2NC(=O)Nc2ccc(Oc3ccnc(Nc4cccc(C(=O)NCCN5CCOCC5)c4)n3)c3ccccc23)c1 [Example 24, 3-((4-((4-(3-(3-(tert-butyl)-1-(4-methylthiophen-2-yl)-1H-pyrazol-5-yl)ureido)naphthalen-1-yl)oxy)pyrimidin-2-yl)amino)-N-(2-morpholinoethyl)benzamide] | −ve (−ve and +ve indicate that the value is below and above respectively, the no significant effect threshold, defined as 30% inhibition at 1 μg/mL at the time point indicated) | −ve (−ve and +ve indicate that the value is below and above respectively, the no significant effect threshold, defined as 30% inhibition at 1 μg/mL at the time point indicated) | 1 nM |
| 285 nM | 4 nM | 0.6 nM | 1.5 nM | > 1330 nM | Cc1ccc(-n2nc(C(C)(C)C)cc2NC(=O)Nc2ccc(Oc3ccnc(Nc4cccc(C(=O)NCCN5CCN(C)CC5)c4)n3)c3ccccc23)cc1 [Example 25, 3-((4-((4-(3-(3-(tert-butyl)-1-(p-tolyl)-1H-pyrazol-5-yl)ureido)naphthalen-1-yl)oxy)pyrimidin-2-yl)amino)-N-(2-(4-methylpiperazin-1-yl)ethyl)benzamide] | −ve (−ve and +ve indicate that the value is below and above respectively, the no significant effect threshold, defined as 30% inhibition at 1 μg/mL at the time point indicated) | −ve (−ve and +ve indicate that the value is below and above respectively, the no significant effect threshold, defined as 30% inhibition at 1 μg/mL at the time point indicated) | 1.9 nM |
| 1630 nM |  | 1.6 nM | 0.7 nM | > 1320 nM | COc1ccc(-n2nc(C(C)C)cc2NC(=O)Nc2ccc(Oc3ccnc(Nc4cc(C)cc(C(=O)NCCN5CCOCC5)c4)n3)c3ccccc23)cc1 [Example 45, 3-((4-((4-(3-(3-isopropyl-1-(4-methoxyphenyl)-1H-pyrazol-5-yl)ureido)naphthalen-1-yl)oxy)pyrimidin-2-yl)amino)-5-methyl-N-(2-morpholinoethyl)benzamide] | −ve (−ve and +ve indicate that the value is below and above respectively, the no significant effect threshold, defined as 30% inhibition at 1 μg/mL at the time point indicated) | −ve (−ve and +ve indicate that the value is below and above respectively, the no significant effect threshold, defined as 30% inhibition at 1 μg/mL at the time point indicated) | 135 nM |
